Source: patent publication US20210309631A1, “SALT OF CYCLOHEXANE DERIVATIVE” (priority 2018, published 2021)

Assays:
solubility in water = format: physicochemical; conditions: listed as sulfate Form A
[1] = Hygroscopicity (DVS) experiment, 25° C./80% relative humidity; format: physicochemical
Method: Dynamic vapor sorption curves were collected on a DVS Intrinsic by SMS (Surface Measurement Systems).
20 mg sample of the crystal forms of the Examples and Comparative Examples are placed in the environment of 25° C./80% relative humidity for a dynamic vapor sorption (DVS) test, and the test results […] are shown in Table 5.

[2] = Plasma pharmacokinetics in SD rats after single intragastric administration (Example 7); format: in vivo; conditions: intragastric 1 mg/kg, Mean ± SD, non-compartmental model, listed as Sulfate
Method: The in vivo absorption process and characteristics of the free base and four salts thereof (sulfate, hydrochloride salt, phosphate, maleate) of compound (I) in rats were studied. The pharmacokinetics of a single intragastric administration of 1 mg/kg of a compound of Formula I and four salts thereof (calculated by free base concentration in salt form) were studied in SD rats.
SD rats were given a single intragastric administration of 1 mg/kg free base of Example 1 and four salts thereof (including hydrochloride salt from Example 2, sulfate from Example 3, phosphate from Example 4 and maleate from Example 5). There were 4 male rats in each group. The concentration of the compound of Formula I in plasma was determined, and the pharmacokinetic parameters were calculated according to the concentration-time curve.

[3] = In vivo individual difference analysis: individual plasma concentration versus time in rats (Example 8); set-up: species or system SD rats; conditions: intragastric 1 mg/kg, listed as Sulfate of Compound of Formula I
Method: Compound of Formula I and salts thereof (sulfate, hydrochloride salt, phosphate, maleate), supplied by Shanghai Jingxin Biopharmaceutical Co., Ltd. • Strain: SD rats; Gender: male; Body weight: about 250 grams; Source: shanghai Jiesijie Experimental Animal Co., Ltd Route: single intragastric administration; Capacity: measured in 10 mL/kg body weight Preparation: weighing appropriate amount of the free base or salt of the compound of Formula I, adding a small amount of 0.5% CMC-Na to grind, adding 0.5% CMC-Na to the volume. The concentration is measured as the base. 20 SD rats were divided into 5 groups with 4 rats in each group, fasted for 12 h and drank freely before administration. […] The blood was anticoagulated with 1% heparin, the plasma was separated by 8000 rpm centrifugation for 4 min and stored at -40° C. for testing. LC-MS/MS Method. Pharmacokinetic parameters after administration in rats were calculated using a non-compartmental model of DAS 2.0 software.

[4] = DVS, 25° C./80% relative humidity, listed as Example 3 sulfate

For `CN(C)C(=O)N[C@H]1CC[C@H](CCN2CCN(c3cccc4ccsc34)CC2)CC1` [Example 3, N′-[trans-4-[2-[7-(benzo[b]thiophene)-7-piperazinyl]ethyl]cyclohexyl]-N,N-dimethylurea], the solubility in water (solubility in water) was “greater than 8.0 mg/ml”, the Hygroscopicity [1, 4] was “Slight” and the Vapor sorption [1, 4] was 0.23%. The “The crystal form changes after DVS testing or not” value ([1]; after DVS testing) was “No”, the “MRT0-∞” value [2] was 2.87 ± 0.283 h and the Tmax [2] was 0.417 ± 0.096 h. The t1/2 [2] was 2.67 ± 0.267 h, the “Plasma Concentrations of Compound of Formula I” value (from here on “Plasma Concentrations”) ([3]; 5 min after administration, Mean ± SD) was 2.25 ± 0.476 ng/mL and the “Plasma Concentrations” value ([3]; 5 min after administration, rat 1♂) was 1.54 ng/mL. The “Plasma Concentrations” value ([3]; 5 min after administration, rat 2♂) was 2.41 ng/mL, the “Plasma Concentrations” value ([3]; 5 min after administration, rat 3♂) was 2.56 ng/mL and the “Plasma Concentrations” value ([3]; 5 min after administration, rat 4♂) was 2.48 ng/mL. For the same compound, the “Plasma Concentrations” value ([3]; 0.167 h after administration, Mean ± SD) was 21.7 ± 2.45 ng/mL, the “Plasma Concentrations” value ([3]; 0.167 h after administration, rat 1♂) was 24.0 ng/mL and the “Plasma Concentrations” value ([3]; 0.167 h after administration, rat 2♂) was 18.4 ng/mL. For the same compound, the “Plasma Concentrations” value ([3]; 0.167 h after administration, rat 3♂) was 23.0 ng/mL, the “Plasma Concentrations” value ([3]; 0.167 h after administration, rat 4♂) was 21.3 ng/mL and the “Plasma Concentrations” value ([3]; 0.333 h after administration, Mean ± SD) was 51.2 ± 2.32 ng/mL. The “Plasma Concentrations” value ([3]; 0.333 h after administration, rat 1♂) was 50.4 ng/mL, the “Plasma Concentrations” value ([3]; 0.333 h after administration, rat 2♂) was 54.4 ng/mL and the “Plasma Concentrations” value ([3]; 0.333 h after administration, rat 3♂) was 51.0 ng/mL. For the same compound, the “Plasma Concentrations” value ([3]; 0.333 h after administration, rat 4♂) was 48.9 ng/mL, the “Plasma Concentrations” value ([3]; 0.5 h after administration, Mean ± SD) was 49.9 ± 10.4 ng/mL and the “Plasma Concentrations” value ([3]; 0.5 h after administration, rat 1♂) was 56.0 ng/mL. The “Plasma Concentrations” value ([3]; 0.5 h after administration, rat 2♂) was 36.0 ng/mL, the “Plasma Concentrations” value ([3]; 0.5 h after administration, rat 3♂) was 48.0 ng/mL and the “Plasma Concentrations” value ([3]; 0.5 h after administration, rat 4♂) was 59.4 ng/mL. The “Plasma Concentrations” value ([3]; 1 h after administration, Mean ± SD) was 39.2 ± 6.84 ng/mL, the “Plasma Concentrations” value ([3]; 1 h after administration, rat 1♂) was 42.6 ng/mL and the “Plasma Concentrations” value ([3]; 1 h after administration, rat 2♂) was 30.0 ng/mL. For the same compound, the “Plasma Concentrations” value ([3]; 1 h after administration, rat 3♂) was 38.5 ng/mL, the “Plasma Concentrations” value ([3]; 1 h after administration, rat 4♂) was 45.8 ng/mL and the “Plasma Concentrations” value ([3]; 2 h after administration, Mean ± SD) was 23.2 ± 7.54 ng/mL. The “Plasma Concentrations” value ([3]; 2 h after administration, rat 1♂) was 32.7 ng/mL, the “Plasma Concentrations” value ([3]; 2 h after administration, rat 2♂) was 14.5 ng/mL and the “Plasma Concentrations” value ([3]; 2 h after administration, rat 3♂) was 24.1 ng/mL. For the same compound, the “Plasma Concentrations” value ([3]; 2 h after administration, rat 4♂) was 21.3 ng/mL, the “Plasma Concentrations” value ([3]; 4 h after administration, Mean ± SD) was 7.92 ± 3.01 ng/mL and the “Plasma Concentrations” value ([3]; 4 h after administration, rat 1♂) was 10.3 ng/mL. The “Plasma Concentrations” value ([3]; 4 h after administration, rat 2♂) was 4.31 ng/mL, the “Plasma Concentrations” value ([3]; 4 h after administration, rat 3♂) was 10.5 ng/mL and the “Plasma Concentrations” value ([3]; 4 h after administration, rat 4♂) was 6.57 ng/mL. The “Plasma Concentrations” value ([3]; 6 h after administration, Mean ± SD) was 2.87 ± 1.10 ng/mL, the “Plasma Concentrations” value ([3]; 6 h after administration, rat 1♂) was 3.08 ng/mL and the “Plasma Concentrations” value ([3]; 6 h after administration, rat 2♂) was 1.35 ng/mL. The “Plasma Concentrations” value ([3]; 6 h after administration, rat 3♂) was 3.99 ng/mL, the “Plasma Concentrations” value ([3]; 6 h after administration, rat 4♂) was 3.05 ng/mL and the “Plasma Concentrations” value ([3]; 9 h after administration, Mean ± SD) was 1.15 ± 0.444 ng/mL. For the same compound, the “Plasma Concentrations” value ([3]; 9 h after administration, rat 1♂) was 1.30 ng/mL, the “Plasma Concentrations” value ([3]; 9 h after administration, rat 2♂) was 0.643 ng/mL and the “Plasma Concentrations” value ([3]; 9 h after administration, rat 3♂) was 1.68 ng/mL. For the same compound, the “Plasma Concentrations” value ([3]; 9 h after administration, rat 4♂) was 0.973 ng/mL, the “Plasma Concentrations” value ([3]; 12 h after administration, Mean ± SD) was 0.606 ± 0.221 ng/mL and the “Plasma Concentrations” value ([3]; 12 h after administration, rat 1♂) was 0.718 ng/mL. For the same compound, the “Plasma Concentrations” value ([3]; 12 h after administration, rat 2♂) was 0.317 ng/mL, the “Plasma Concentrations” value ([3]; 12 h after administration, rat 3♂) was 0.827 ng/mL and the “Plasma Concentrations” value ([3]; 12 h after administration, rat 4♂) was 0.561 ng/mL. The “Plasma Concentrations” value ([3]; 24 h after administration, Mean ± SD) was 0.244 ± 0.161 ng/mL, the “Plasma Concentrations” value ([3]; 24 h after administration, rat 1♂) was 0.213 ng/mL and the “Plasma Concentrations” value ([3]; 24 h after administration, rat 2♂) was 0.135 ng/mL. For the same compound, the “Plasma Concentrations” value ([3]; 24 h after administration, rat 3♂) was 0.148 ng/mL and the “Plasma Concentrations” value ([3]; 24 h after administration, rat 4♂) was 0.479 ng/mL.
